In ChEMBL document CHEMBL1144368, “Synthesis of 15R-PGD2: a potential DP2 receptor agonist” (Bioorg Med Chem Lett, 2005):

Assays:
Type in all cases: functional
[1] = target: T1, Prostaglandin D2 receptor 2 (Homo sapiens) (UniProt Q9Y5Y4); experiment: Percentage for DP2 mediated stimulation of actin polymerization in eosinophils was determined at 1 uM; (above control)
T1 sequence (whole entry): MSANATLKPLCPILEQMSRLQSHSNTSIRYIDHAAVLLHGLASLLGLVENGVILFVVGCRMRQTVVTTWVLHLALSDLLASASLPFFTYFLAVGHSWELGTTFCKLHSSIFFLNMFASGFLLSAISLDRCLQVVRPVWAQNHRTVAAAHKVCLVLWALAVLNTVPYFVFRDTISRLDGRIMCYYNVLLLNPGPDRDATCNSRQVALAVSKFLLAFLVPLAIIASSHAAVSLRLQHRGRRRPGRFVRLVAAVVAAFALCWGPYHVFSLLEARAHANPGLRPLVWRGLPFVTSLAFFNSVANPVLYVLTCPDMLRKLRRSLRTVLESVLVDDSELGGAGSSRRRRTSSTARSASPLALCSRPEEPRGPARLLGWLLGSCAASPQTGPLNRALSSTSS

[2] = target: T2, Prostaglandin D2 receptor (Homo sapiens) (UniProt Q13258); experiment: Effective concentration for DP1 mediated cAMP formation in platelets was determined at 1 uM
T2 sequence (whole entry): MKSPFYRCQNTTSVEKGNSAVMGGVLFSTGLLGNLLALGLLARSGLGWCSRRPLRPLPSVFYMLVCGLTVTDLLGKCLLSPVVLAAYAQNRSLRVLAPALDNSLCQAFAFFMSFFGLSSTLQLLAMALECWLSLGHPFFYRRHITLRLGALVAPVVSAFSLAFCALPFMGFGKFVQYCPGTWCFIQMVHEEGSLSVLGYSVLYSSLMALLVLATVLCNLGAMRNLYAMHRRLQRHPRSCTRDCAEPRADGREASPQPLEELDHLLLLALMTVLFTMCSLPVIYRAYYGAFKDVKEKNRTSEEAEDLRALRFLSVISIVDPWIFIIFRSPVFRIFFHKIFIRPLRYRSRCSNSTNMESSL

[3] = target: T3, Prostaglandin D2 receptor 2 (Homo sapiens, UniProt Q9Y5Y4); experiment: Effective concentration for DP2 mediated stimulation of actin polymerization in eosinophils
T3 sequence (Q9Y5Y4 whole entry): T1 sequence (whole entry)

[4] = target: T2, Prostaglandin D2 receptor (Homo sapiens); experiment: Effective concentration for DP1 mediated cAMP formation in platelets
[5] = target: T3, Prostaglandin D2 receptor 2; experiment: Effective concentration DP2 mediated expression of the adhesion molecule CD11b in eosinophils

Row | Activity [1] | Activity [2] | EC50 [3] | EC10 [4] | EC50 [5] | SMILES
1 | 83.8% | 0.83 pmol | – | – | – | CCCCC[C@@H](O)/C=C/[C@H]1C(=O)C[C@H](O)[C@@H]1C/C=C/CCCC(=O)O
2 | – | – | 3.8 nM | > 10000 nM | 1.4 nM | CCCCC[C@@](C)(O)/C=C/[C@H]1C(=O)C[C@H](O)[C@@H]1C/C=C/CCCC(=O)O
3 | – | – | 333 nM | 2100 nM | 99 nM | CCCCC[C@](C)(O)/C=C/[C@H]1C(=O)C[C@H](O)[C@@H]1C/C=C/CCCC(=O)O
4 | 86.2% | 15.5 pmol | 13 nM | 11 nM | 7 nM | CCCCC[C@H](O)/C=C/[C@H]1C(=O)C[C@H](O)[C@@H]1CC=CCCCC(=O)O [[3H]PGD2]
